According to paper PMC9687286, “Hydrophobic Rose Bengal Derivatives Exhibit Submicromolar-to-Subnanomolar Activity against Enveloped Viruses” (Biomolecules, 2022):
Counter-ions that a name gives are not always drawn.

Key:
CHIKV strain Nic = assay: microbe, parasite or virus in culture; format: cell-based; conditions: Chikungunya virus, Vero, read-out: EC50 (M ± SD), CHIKV
[1] = Cell viability assay (resazurin) for Vero cells; conditions: African green monkey, confluent Vero cell monolayers
[2] = Cell viability assay for MT-4 cells; conditions: human
[3] = Cell viability assay for RD cells; conditions: human
[4] = system: Enterovirus C vaccine strain Sabin 1 of poliovirus type 1 (PV1); assay: microbe, parasite or virus in culture; format: cell-based; conditions: RD, 120 h, read-out: EC50 (M ± SD), PV1
[5] = system: Enterovirus A Coxsackievirus A16 (CVA16) isolate 49360; assay: microbe, parasite or virus in culture; format: cell-based; conditions: RD, 120 h, read-out: EC50 (M ± SD), CVA16
physchem = conditions: aqueous with cosolvent or surfactant or cyclodextrin
SARS-CoV-2 strain PIK35 = assay: microbe, parasite or virus in culture; format: cell-based; conditions: Severe acute respiratory syndrome coronavirus 2, Vero, read-out: EC50 (M ± SD), SARS-CoV-2
[6] = system: Enterovirus B Echovirus 13 (E13) isolate 57088; assay: microbe, parasite or virus in culture; format: cell-based; conditions: RD, 120 h, read-out: EC50 (M ± SD), E13
HIV-1 strain NL4-3 = assay: microbe, parasite or virus in culture; format: cell-based; conditions: Human immunodeficiency virus 1, NL43, MT4, 168 h, read-out: EC50 (M ± SD), HIV

Compound	EC50 (CHIKV strain Nic) [µM]	CC50 at 5 days [1] [µM]	CC50 at 7 days [2] [µM]	CC50 at 5 days [3] [µM]	EC50 [4] [µM]	EC50 [5] [µM]	solubility kinetic (physchem) [µM]	EC50 (SARS-CoV-2 strain PIK35) [µM]	EC50 [6] [µM]	EC50 (HIV-1 strain NL4-3) [µM]
CCCCCCOC(=O)c1c(Cl)c(Cl)c(Cl)c(Cl)c1-c1c2cc(I)c(=O)c(I)c-2oc2c(I)c(O)c(I)cc12 [2b, Rose Bengal N-Hexyl Ester, Monosodium Salt]	0.0007 ± 0.0003	60 ± 15	15 ± 4	21.3 ± 5.2	> 100	> 100	1	0.4 ± 0.3	> 100	4.4 ± 1.8
CCCCCCCCOC(=O)c1c(Cl)c(Cl)c(Cl)c(Cl)c1-c1c2cc(I)c(=O)c(I)c-2oc2c(I)c(O)c(I)cc12 [2c, Rose Bengal N-Octyl Ester, Monosodium Salt]	0.0002 ± 0.0001	53 ± 25	42 ± 10	21.3 ± 5.2	> 100	> 100		5.3 ± 1.3	> 100	8.8 ± 3.7
CCCCOC(=O)c1c(Cl)c(Cl)c(Cl)c(Cl)c1-c1c2cc(I)c(=O)c(I)c-2oc2c(I)c(O)c(I)cc12 [2a, Rose Bengal N-Butyl Ester, Monosodium Salt]	0.004 ± 0.002	8 ± 1	15 ± 4	21.3 ± 5.2	> 100	> 100	3.1	0.05 ± 0.02	> 100	6.3 ± 2.6
O=c1nc(NO)ccn1[C@@H]1O[C@H](CO)[C@@H](O)[C@H]1O [NHC, N^4-hydroxycytidine, reference compound]	23.6 ± 10.2	> 100		> 100	25 ± 10	50 ± 18		4.7 ± 2.9	17 ± 8	
CCCCCCCCCCOC(=O)c1c(Cl)c(Cl)c(Cl)c(Cl)c1-c1c2cc(I)c(=O)c(I)c-2oc2c(I)c(O)c(I)cc12 [2d, Rose Bengal N-Decyl Ester, Monosodium Salt]	0.002 ± 0.001	60 ± 15	42 ± 10	10.7 ± 2.6	> 100	> 100		6.6 ± 3.1	> 100	8.8 ± 2.6
O=C(O)c1c(Cl)c(Cl)c(Cl)c(Cl)c1-c1c2cc(I)c(=O)c(I)c-2oc2c(I)c(O)c(I)cc12 [compound 1, Rose Bengal, disodium salt, reference compound]	0.11 ± 0.05	43 ± 10	> 50	43 ± 10	> 100	> 100	> 50	0.5 ± 0.2	> 100	18 ± 7
CCCCCCCCCCCCOC(=O)c1c(Cl)c(Cl)c(Cl)c(Cl)c1-c1c2cc(I)c(=O)c(I)c-2oc2c(I)c(O)c(I)cc12 [2e, Rose Bengal N-Dodecyl Ester, Monosodium Salt]	0.038 ± 0.03	> 100	> 50	21.3 ± 5.2	> 100	> 100		43 ± 10	> 100	> 50
Cc1cn([C@H]2C[C@H](N=[N+]=[N-])[C@@H](CO)O2)c(=O)[nH]c1=O [AZT, azidothymidine, reference compound]			> 5							0.01
